In publication PMC6797721, “Unveil the Anticancer Potential of Limomene Based Therapeutic Deep Eutectic Solvents” (Scientific Reports, 2019):

Tests used:
Assay type in all cases: cell-based, Human
Caco-2 cells = experiment: Cytotoxicity assay (MTS) in confluent non-differentiated Caco-2 cells; conditions: isolated compounds; Caco-2, 24 hours, mean ± SD
Experimental: (§1) Human Caco-2 and HT29 cell lines were obtained from Deutsche Sammlung von Mikroorganismen und Zellkulturen (DSMZ, Germany) and American Type Culture Collection (ATCC, USA), respectively. These cell lines were cultured in RPMI 1640 medium supplemented with 10% of heat-inactivated fetal bovine serum (FBS) and 1% […] (PS). Cells were maintained at 37°C with 5% CO2 in a humidified incubator and routinely grown as a monolayer in 75 cm^2 culture flasks. The cell culture medium and supplements were purchased from Invitrogen (Gibco, Invitrogen Corporation, UK). Cytotoxicity assay was performed using confluent and non-differentiated Caco-2 cells, a model considered to assess the effect of chemical/food compounds and nano/microparticles on the intestinal function since it shares characteristics of the enterocytes. The assay was performed as previously described by Rodrigues et al.[71]. Briefly, Caco-2 cells were seeded into 96-well plates at a density of 2 × 10^4 cells/well and allowed to grow for 7 days, with medium renewal every 48 hours. At day 7, cells were incubated with the samples diluted in culture medium. Cells incubated only with culture medium were considered as control. After 24 hours, cells were washed once with PBS (Sigma-Aldrich, USA) and cell viability was assessed using CellTiter 96® AQueous One Solution Cell Proliferation Assay (Promega, USA) containing MTS reagent, according to manufacturer's instructions. The absorbance was measured at 490 nm using a Spark® 10 M Multimode Microplate Reader (Tecan Trading AG, Switzerland) and cell viability was expressed in terms of percentage of living cells relatively to the control. At least three independent experiments were performed in triplicate. All data were expressed as mean ± standard errors (SD). GraphPad Prism 6 software was used to calculate EC50 values (the concentration of sample necessary to decrease 50% of cell population) and to analyse significant differences between data set through One-Way Analysis of Variance (ANOVA) following Dunnett's multiple comparison tests.

HT29 cells [1] = experiment: Antiproliferative assay in HT29 cell monolayer (MTS); conditions: isolated compounds, HT29, 24 hours, mean ± SD
Experimental: Human Caco-2 and HT29 cell lines were obtained from Deutsche Sammlung von Mikroorganismen und Zellkulturen (DSMZ, Germany) and American Type Culture Collection (ATCC, USA), respectively. These cell lines were cultured in RPMI 1640 medium supplemented with 10% of heat-inactivated fetal bovine serum (FBS) and 1% […] (PS). Cells were maintained at 37°C with 5% CO2 in a humidified incubator and routinely grown as a monolayer in 75 cm^2 culture flasks. The cell culture medium and supplements were purchased from Invitrogen (Gibco, Invitrogen Corporation, UK). Antiproliferative effect of […] and standard compounds was evaluated in HT29 cells, as described elsewhere. Briefly, cells were seeded at a density of 1 × 10^4 cells/well in 96-well culture plates. After 24 hours cells were incubated with different concentrations of the samples diluted in culture medium. Cells incubated only with culture medium were considered as control. Cell proliferation was measured after 24 hours using MTS, as mentioned above. Results were expressed in terms of percentage of living cells relatively to the control. At least three independent experiments were performed in triplicate. All data were expressed as mean ± standard errors (SD). GraphPad Prism 6 software was used to calculate EC50 values (the concentration of sample necessary to decrease 50% of cell population) and to analyse significant differences between data set through One-Way Analysis of Variance (ANOVA) following Dunnett's multiple comparison tests.

[2] = Cytotoxicity assay (MTS) in confluent non-differentiated Caco-2 cells; conditions: human, confluent, non-differentiated Caco-2 cells; isolated compounds; Caco-2, 24 hours, mean ± SD
Experimental: as §1

HT29 cells [3] = experiment: Cell cycle assessment by flow cytometry; conditions: HT29, 24 hours, non-cytotoxic concentrations
Experimental: HT29 cell line was seeded at a density of 1 × 10^6 cells in a 25 cm^2 culture flask for 24 hours. Then, cells were incubated in different concentrations of the samples diluted in culture medium and culture medium alone (as control) for 24 hours. For flow cytometry analysis of DNA content, bare nuclei were prepared as described elsewhere. Briefly, cells were detached from the culture flasks with trypsin-EDTA 0.5% and washed one time with cold PBS. Finally, 1 × 10^6 cells were re-suspended in 1 mL of staining solution containing […] of Propidium Iodide (Sigma-Aldrich, USA), 1.5% (v/v) of Triton X-100 (Sigma-Aldrich, USA), 0.7 U/mL of DNase/protease-free Ribonuclease A (Thermo Scientific, USA) and 0.01 M of NaCl, followed by incubation at room temperature in the dark for 2 hours. Cell cycle was assessed by flow cytometry, using a CyFlow space (Partec GmbH) instrument, registering 30.000 events/sample as described previously.

HT29 cells [4] = experiment: Caspase-3 activity induction (apoptosis); conditions: HT29, 24 hours, 2 mM
Experimental: Apoptosis was evaluated by caspase-3 activity using NucView488TM and MitoView633TM Apoptosis Assay Kit (Biotium, USA) that allows the staining of living cells with a far-red fluorescent dye MitoView633TM, while the intracellular caspase-3/7 activity and cells nuclei morphological changes were stained with bright green fluorescent dye NucView488TM. HT29 cells were seeded at a density of 40.000 cell/cm^2 at 24-well plate for 24 hours. Then, cells were incubated another 24 hours with different concentrations of the samples diluted in culture medium and culture medium alone (as control). Staining was performed with 200 μL/well of culture medium containing 1 μL of NucView488TM and 1 μL of MitoView633TM for 2 hours.

With CCCCCCCCCC(=O)O [CA, Capric acid] the EC50 (Caco-2 cells) was 1330 ± 223 µM and the EC50 (HT29 cells [1]) was 341 ± 81 µM.

In the case of CC(C)Cc1ccc(C(C)C(=O)O)cc1 (centres unmarked) [IBU, Ibuprofen], the EC50 at 24 h [2] is reported as 2890 ± 59 µM, the “Effect on cell cycle” value (HT29 cells [3]) is reported as “promoted cell cycle arrest in G1-phase” and the EC50 (HT29 cells [1]; Homo sapiens, HT-29) is reported as 2350 ± 88 µM.

In the case of CC1CCC(C(C)C)C(O)C1 (centres unmarked) [Menthol, menthol], the EC50 at 24 h [2] is reported as 8080 ± 810 µM and the EC50 (HT29 cells [1]; Homo sapiens, HT-29) is reported as 4730 µM.

With S-Limonene the EC50 (Caco-2 cells) was 2640 ± 108 µM, the “Effect on cell cycle” value (HT29 cells [3]) was “promoted cell cycle arrest in G1-phase” and the EC50 (HT29 cells [1]) was 661 ± 25 µM. For the same compound, the “Induction of apoptosis (caspase-3 activity)” value (HT29 cells [4]) was “capable of inducing apoptosis via caspase-3 activity”.
